Source: PubChem BioAssay (NCI)
Several values for one entry are separate records, joined by “and”; a condition that tells them apart may be missing. Identical values can stand only once.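 Interpolation was linear, between the two tested concentrations surrounding the appropriate level; five concentrations were tested over 48 hours in 96-well plates. GI50 marks 50% less growth. TGI denotes the concentration required for complete inhibition of growth.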

Legend:
Experiment in all cases: DTP human tumour cell line panel, 48 h
COLO 205 colon = test system: COLO 205 colon
HCC-2998 colon = test system: HCC-2998 colon
HOP-92 NSCLC = test system: HOP-92 NSCLC
LOX IMVI melanoma = test system: LOX IMVI melanoma
M14 melanoma = test system: M14 melanoma
MCF7 breast = test system: MCF7 breast
MOLT-4 leukemia = test system: MOLT-4 leukemia
NCI-H460 lung = test system: NCI-H460 lung
OVCAR-3 ovarian = test system: OVCAR-3 ovarian
RXF 393 renal = test system: RXF 393 renal

SMILES	GI50 (COLO 205 colon)	TGI (COLO 205 colon) [µM]	GI50 (HCC-2998 colon) [µM]	TGI (HCC-2998 colon) [µM]	GI50 (HOP-92 NSCLC) [µM]	TGI (HOP-92 NSCLC) [µM]	GI50 (LOX IMVI melanoma)	TGI (LOX IMVI melanoma) [µM]	GI50 (M14 melanoma) [µM]	TGI (M14 melanoma) [µM]	GI50 (MCF7 breast)	TGI (MCF7 breast) [µM]	GI50 (MOLT-4 leukemia) [µM]	TGI (MOLT-4 leukemia) [µM]	GI50 (NCI-H460 lung)	TGI (NCI-H460 lung) [µM]	GI50 (OVCAR-3 ovarian)	TGI (OVCAR-3 ovarian) [µM]	GI50 (RXF 393 renal) [µM]	TGI (RXF 393 renal) [µM]
CC1(C)N=C(N)N=C(N)N1c1cccc(CCCCc2ccc(Cl)c(S(=O)(=O)F)c2)c1	1750 nM	18.6	1.92	16	4.7	21.4	0.433 µM	16.1	3.21	17.4	3.28 µM	17.7	1.82	19.2	0.938 µM	14.5	5.58 µM	18.5	0.459	16.1
Cn1cnc(SC2=CC(=O)C=C3S[C@H]4C[C@@]23c2c(c(O)c3c5c2=NCCC=5C=N3)N4)c1CC(N)C(=O)O (some centres undefined)	1530 nM	3.01	13.6	26.6	17.5	31.7	4.64 µM	18.6	15.1	28.6	–	11.5	2.99	8.98	16.2 µM	31.6	3.24 µM	10.7	10.6	23.8
COc1cc(OCCCN2CCCC2)ccc1Nc1ncc(Cl)c(Nc2ccccc2P(C)(C)=O)n1	1080 nM	2.81	2.65	25.7	0.163	1.25	1.32 µM	4.4	2.58	12.3	0.867 µM	19.3	3.95	26	2.47 µM	12	2.75 µM	12	0.81	3.23
Oc1ccc(Br)cc1C=NC1CCCCC1	–	> 100	–	> 100	–	> 100	–	> 100	–	> 100	–	> 100	–	> 100	–	> 100	–	> 100	–	> 100
O=C1/C(=C/c2ccc(Cl)cc2)N=C(c2ccccc2)N1c1cc(C(F)(F)F)ccc1Cl	17500 nM	40.7	27.5	87	20.3	58.5	16.5 µM	41.2	22	90.1	17.6 µM	57.9	15.5	51.2	19.4 µM	61.7	17.4 µM	69	27.5	> 100
COc1nc2c(c(=O)n1C)CN(c1ccccc1)C(=O)CN2C	40600 nM	> 100	> 100	> 100	0.852	55.1	> 100 µM	> 100	62.6	> 100	6.25 µM	> 100	33.9	> 100	60.2 µM	> 100	38.4 µM	> 100	54.3	> 100
COc1ccc2c(c1)C(=O)/C(=C/c1ccc(O)cc1)O2	2770 nM	8.97	17.3	33.6	3.37	9.65	3.29 µM	14	15.3	34	4.93 µM	18.3	2.38	6.06	20.3 µM	50.3	2.28 µM	5.29	11	26
C[C@]1(c2nc3c(C(N)=O)cccc3[nH]2)CCCN1	72800 nM and > 100000 nM	> 100	> 100	> 100	> 67.9	> 100	66.1 µM and 97.7 µM	> 100	> 100	> 100	34.2 µM and > 71.3 µM	> 100	> 100	> 100	35.5 µM and 48.6 µM	> 100	53.6 µM and > 100 µM	> 100	> 90.3	> 100
